Measurements from patent US20250188069A1, “COMPOUNDS AND METHODS FOR DEGRADING CASEIN KINASE 1 ALPHA” (PIN THERAPEUTICS, INC., priority 2022, published 2025).
Where a name gives a salt, the structure may show the parent alone. Read-outs that look alike come from different tables or passages of the source.

What was measured:
[1] = molecular target: CK1α (Homo sapiens, UniProt P48729+Q96SW2); test: CK1α degradation, flow cytometry in MV4-11 cells; type: cell-based; parameters: CK1α levels were determined in MV-4-11 cells using Jess (Protein Simple); host or cells: MV-4-11; conditions: % reduction of CK1α compared to DMSO, MV4-11 cells at 316 nM for 16 hours, read-out: CK1α degradation classification
Chain of CK1α (P48729 whole entry): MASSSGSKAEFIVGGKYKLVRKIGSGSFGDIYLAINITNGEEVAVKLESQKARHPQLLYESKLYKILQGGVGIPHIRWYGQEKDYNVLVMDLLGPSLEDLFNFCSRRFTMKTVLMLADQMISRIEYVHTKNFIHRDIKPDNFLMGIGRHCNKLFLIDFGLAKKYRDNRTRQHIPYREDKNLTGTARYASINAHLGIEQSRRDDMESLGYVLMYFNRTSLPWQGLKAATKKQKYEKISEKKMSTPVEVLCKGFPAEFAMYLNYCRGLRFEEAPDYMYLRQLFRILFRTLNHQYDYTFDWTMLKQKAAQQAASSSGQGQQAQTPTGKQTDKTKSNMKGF
Chain of CK1α (Q96SW2 whole entry): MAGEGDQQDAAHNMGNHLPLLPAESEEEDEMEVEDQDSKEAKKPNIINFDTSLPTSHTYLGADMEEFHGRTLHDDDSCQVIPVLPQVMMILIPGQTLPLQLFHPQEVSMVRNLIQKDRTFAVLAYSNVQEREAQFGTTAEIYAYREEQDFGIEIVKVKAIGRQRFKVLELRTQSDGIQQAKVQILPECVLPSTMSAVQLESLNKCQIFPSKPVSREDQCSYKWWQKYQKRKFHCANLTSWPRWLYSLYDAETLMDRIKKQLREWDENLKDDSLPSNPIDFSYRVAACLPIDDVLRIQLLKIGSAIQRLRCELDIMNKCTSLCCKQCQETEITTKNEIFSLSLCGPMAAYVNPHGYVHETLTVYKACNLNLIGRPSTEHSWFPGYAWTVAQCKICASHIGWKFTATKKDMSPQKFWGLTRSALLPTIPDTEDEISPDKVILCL
Chain of CK1α (Q16531 whole entry partner): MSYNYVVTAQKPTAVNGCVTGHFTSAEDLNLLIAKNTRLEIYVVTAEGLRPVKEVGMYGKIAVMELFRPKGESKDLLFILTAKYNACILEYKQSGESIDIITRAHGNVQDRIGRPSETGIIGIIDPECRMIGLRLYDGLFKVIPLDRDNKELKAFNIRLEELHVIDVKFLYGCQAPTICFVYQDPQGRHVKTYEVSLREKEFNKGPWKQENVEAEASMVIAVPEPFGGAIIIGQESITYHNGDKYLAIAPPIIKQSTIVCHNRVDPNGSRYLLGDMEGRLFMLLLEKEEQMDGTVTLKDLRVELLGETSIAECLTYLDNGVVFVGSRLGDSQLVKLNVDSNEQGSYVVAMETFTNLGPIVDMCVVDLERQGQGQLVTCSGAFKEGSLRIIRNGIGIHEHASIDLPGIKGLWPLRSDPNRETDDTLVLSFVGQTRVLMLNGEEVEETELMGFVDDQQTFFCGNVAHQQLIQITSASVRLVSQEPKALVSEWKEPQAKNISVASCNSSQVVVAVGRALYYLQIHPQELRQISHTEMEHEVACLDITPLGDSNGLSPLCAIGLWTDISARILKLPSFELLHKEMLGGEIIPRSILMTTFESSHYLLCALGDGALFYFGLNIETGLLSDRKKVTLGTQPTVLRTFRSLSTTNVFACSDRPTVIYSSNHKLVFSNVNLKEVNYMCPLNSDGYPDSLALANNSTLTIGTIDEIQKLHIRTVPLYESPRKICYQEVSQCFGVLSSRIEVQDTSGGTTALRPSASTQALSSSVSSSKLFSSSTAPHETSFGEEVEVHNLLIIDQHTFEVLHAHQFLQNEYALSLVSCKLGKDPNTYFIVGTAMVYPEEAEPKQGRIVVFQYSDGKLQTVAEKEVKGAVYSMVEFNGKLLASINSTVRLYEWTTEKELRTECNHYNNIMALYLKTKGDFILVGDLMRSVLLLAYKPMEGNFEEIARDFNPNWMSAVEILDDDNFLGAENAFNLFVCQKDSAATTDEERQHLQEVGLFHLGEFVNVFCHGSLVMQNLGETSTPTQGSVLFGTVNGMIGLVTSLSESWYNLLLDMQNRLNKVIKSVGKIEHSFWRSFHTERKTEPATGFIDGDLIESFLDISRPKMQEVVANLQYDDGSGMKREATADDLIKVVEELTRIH
Experimental: MV-4-11 cells were obtained from ATCC and grown in IMDM supplemented with 10% FBS. The cells were maintained at 37° C. under 5% CO2.
Compounds of the present disclosure were added to cells (final DMSO concentration of 0.5%) and incubated for 16 hours. CK1α level was determined in MV4-11 cells using flow cytometry (Luminex, Guava EasyCyte Plus). Briefly, cells were prepared with sequential 10% formalin and 70% methanol fixation. […] GuavaSoft Incyte software was used to analyse the flow cytometry data. Protein levels relative to DMSO are calculated for CK1α.
The efficacy of CK1α degradation of other part of compounds of the present disclosure was determined by treating MV4-11 cells at […] (Final DMSO concentration of 0.5%) for 16 hours. Protein levels relative to DMSO are calculated for CK1α.
Protein levels relative to DMSO are calculated for CK1α.

[2] = test system: MV-4-11 cells; test: AML cell viability assay (RealTime-Glo); type: cell-based; conditions: Homo sapiens, read-out: Cell viability classification
[3] = MV4-11, IC50 class, MV-4-11 cells, RealTime-Glo after 44 hrs of treatment (TABLE 3)

For `NC[C@@H]1CC[C@@H](N(CCC2CC2)c2cccc3c2CN(C2CCC(=O)NC2=O)C3=O)C1` (stereo partly drawn) [Compound 325A, 3-(4-(((1R,3R)-3-(aminomethyl)cyclopentyl)(2-cyclopropylethyl)amino)-1-oxoisoindolin-2-yl)piperidine-2,6-dione, HCl], the Dmax at 0.316 µM [1] was greater than 75% and the IC50 [2, 3] was less than 0.1 µM.
`CCCCCN(c1cccc2c1CN(C1CCC(=O)NC1=O)C2=O)[C@@H]1CC[C@H](CN)C1` (stereo partly drawn) [Compound 326, 3-(4-(((1R,3S)-3-(aminomethyl)cyclopentyl)(pentyl)amino)-1-oxoisoindolin-2-yl)piperidine-2,6-dione, Formic Acid salt] was tested, and the Dmax at 0.316 µM [1] was greater than 75% and the IC50 [2, 3] was less than 0.1 µM.
`NC[C@H]1CC[C@@H](N(CCC2CC2)c2cccc3c2CN(C2CCC(=O)NC2=O)C3=O)C1` (stereo partly drawn) [Compound 326A, 3-(4-(((1R,3S)-3-(aminomethyl)cyclopentyl)(2-cyclopropylethyl)amino)-1-oxoisoindolin-2-yl)piperidine-2,6-dione, HCl] was tested, and the Dmax at 0.316 µM [1] was greater than 75% and the IC50 [2, 3] was less than 0.1 µM.
Molecule `CCCCCN(c1cccc2c1CN(C1CCC(=O)NC1=O)C2=O)[C@H]1CCC[C@H](CN)C1` (stereo partly drawn) [Compound 329, 3-(4-(((1S,3S)-3-(aminomethyl)cyclohexyl)(pentyl)amino)-1-oxoisoindolin-2-yl)piperidine-2,6-dione, HCl] has a Dmax at 0.316 µM [1] of 50 to 75% and an IC50 [2, 3] of 0.1 to 1 µM.
Work on `CCCCCN(c1cccc2c1CN(C1CCC(=O)NC1=O)C2=O)[C@H]1CCC[C@@H](CN)C1` (stereo partly drawn) [Compound 330, 3-(4-(((1S,3R)-3-(aminomethyl)cyclohexyl)(pentyl)amino)-1-oxoisoindolin-2-yl)piperidine-2,6-dione, HCl] yielded a Dmax at 0.316 µM [1] greater than 75% and an IC50 [2, 3] of less than 0.1 µM.
`O=C1CCC(N2Cc3c(cccc3N(CCCC(F)(F)F)[C@H]3CC[C@H](NC4CC(F)(F)C4)CC3)C2=O)C(=O)N1` (some centres unmarked) [Compound 512, 3-(4-(((1r,4r)-4-((3,3-difluorocyclobutyl)amino)cyclohexyl)(4,4,4-trifluorobutyl)amino)-1-oxoisoindolin-2-yl)piperidine-2,6-dione] gave a Dmax at 0.316 µM [1] of 50 to 75% and an IC50 [2, 3] of 0.1 to 1 µM.
`O=C1CCC(N2Cc3c(cccc3N(CCCC(F)(F)F)[C@H]3CC[C@H](NCCC(F)(F)F)CC3)C2=O)C(=O)N1` (some centres unmarked) [Compound 513, 3-(1-oxo-4-((4,4,4-trifluorobutyl)((1r,4r)-4-((3,3,3-trifluoropropyl)amino)cyclohexyl)amino)isoindolin-2-yl)piperidine-2,6-dione] was tested, and the Dmax at 0.316 µM [1] was greater than 75% and the IC50 [2, 3] was 0.1 to 1 µM.
For `O=C1CCC(N2Cc3c(cccc3N(CCCC(F)(F)F)[C@H]3CC[C@H](NC4COC4)CC3)C2=O)C(=O)N1` (some centres unmarked) [Compound 514, 3-(1-oxo-4-{[(1r,4r)-4-(oxetan-3-ylamino)cyclohexyl](4,4,4-trifluorobutyl)amino}-3H-isoindol-2-yl)piperidine-2,6-dione], the Dmax at 0.316 µM [1] was 50 to 75% and the IC50 [2, 3] was 0.1 to 1 µM.
With `O=C1CCC(N2Cc3c(cccc3N(CCC3CC3)[C@H]3CC[C@H](NC4CC(F)(F)C4)CC3)C2=O)C(=O)N1` (some centres unmarked) [Compound 515, 3-(4-((2-cyclopropylethyl)((1r,4r)-4-((3,3-difluorocyclobutyl)amino)cyclohexyl)amino)-1-oxoisoindolin-2-yl)piperidine-2,6-dione formate] the Dmax at 0.316 µM [1] was 50 to 75% and the IC50 [2, 3] was greater than 1 µM.
In the case of `O=C1CCC(N2Cc3c(cccc3N(CCC3CC3)[C@H]3CC[C@@H](NC4CC(F)(F)C4)CC3)C2=O)C(=O)N1` (some centres unmarked) [Compound 515A, 3-(4-((2-cyclopropylethyl)((1s,4s)-4-((3,3-difluorocyclobutyl)amino)cyclohexyl)amino)-1-oxoisoindolin-2-yl)piperidine-2,6-dione formate], the Dmax at 0.316 µM [1] is reported as 50 to 75% and the IC50 [2, 3] is reported as 0.1 to 1 µM.
Molecule `O=C1CCC(N2Cc3c(cccc3N(CCC3CC3)[C@H]3CC[C@H](NCCC(F)(F)F)CC3)C2=O)C(=O)N1` (some centres unmarked) [Compound 516, 3-{4-[(2-cyclopropylethyl)[(1r,4r)-4-[(3,3,3-trifluoropropyl)amino]cyclohexyl]amino]-1-oxo-3H-isoindol-2-yl}piperidine-2,6-dione] has a Dmax at 0.316 µM [1] greater than 75% and an IC50 [2, 3] of less than 0.1 µM.
`O=C1CCC(N2Cc3c(cccc3N(CCC3CC3)[C@H]3CC[C@H](NC4COC4)CC3)C2=O)C(=O)N1` (some centres unmarked) [Compound 517, 3-(4-((2-cyclopropylethyl)((1r,4r)-4-(oxetan-3-ylamino)cyclohexyl)amino)-1-oxoisoindolin-2-yl)piperidine-2,6-dione] gave a Dmax at 0.316 µM [1] greater than 75% and an IC50 [2, 3] of less than 0.1 µM.
For `NCC(F)(F)CCN(CCC1CC1)c1cccc2c1CN(C1CCC(=O)NC1=O)C2=O` (centres unmarked) [Compound 518, 3-(4-((4-amino-3,3-difluorobutyl)(2-cyclopropylethyl)amino)-1-oxoisoindolin-2-yl)piperidine-2,6-dione], the Dmax at 0.316 µM [1] was greater than 75% and the IC50 [2, 3] was 0.1 to 1 µM.
For `NCC(CCN(CCC1CC1)c1cccc2c1CN(C1CCC(=O)NC1=O)C2=O)C(F)(F)F` (centres unmarked) [Compound 519, 3-(4-{[4-amino-3-(trifluoromethyl)butyl](2-cyclopropylethyl)amino}-1-oxo-3H-isoindol-2-yl)piperidine-2,6-dione], the Dmax at 0.316 µM [1] was 50 to 75% and the IC50 ([2]; MV4-11, 44 h) was 0.1 to 1 µM.
Work on `N[C@@H]1CC[C@@H](N(CCC2CC2)c2cccc3c2CN(C2CCC(=O)NC2=O)C3=O)C[C@H]1F` (stereo partly drawn) [Compound 521, 3-(4-(((1R,3R,4R)-4-amino-3-fluorocyclohexyl)(2-cyclopropylethyl)amino)-1-oxoisoindolin-2-yl)piperidine-2,6-dione; formic acid] yielded a Dmax at 0.316 µM [1] greater than 75% and an IC50 [2, 3] of less than 0.1 µM.
Work on `NC[C@H]1CC[C@@H](N(CCC2CC2)c2cccc3c2CN(C2CCC(=O)NC2=O)C3=O)CO1` (stereo partly drawn) [Compound 522, 3-(4-{[(3R,6R)-6-(aminomethyl)oxan-3-yl](2-cyclopropylethyl)amino}-1-oxo-3H-isoindol-2-yl)piperidine-2,6-dione] yielded a Dmax at 0.316 µM [1] greater than 75% and an IC50 [2, 3] of less than 0.1 µM.
`NC[C@]1(O)CC[C@H](N(CCC2CC2)c2cccc3c2CN(C2CCC(=O)NC2=O)C3=O)CC1` (some centres unmarked) [Compound 523, 3-(4-(((1r,4r)-4-(aminomethyl)-4-hydroxycyclohexyl)(2-cyclopropylethyl)amino)-1-oxoisoindolin-2-yl)piperidine-2,6-dione] was tested, and the Dmax at 0.316 µM [1] was 50 to 75% and the IC50 [2, 3] was 0.1 to 1 µM.
Molecule `NC[C@]1(O)CC[C@H](N(CCCC(F)(F)F)c2cccc3c2CN(C2CCC(=O)NC2=O)C3=O)CC1` (some centres unmarked) [Compound 530, 3-(4-(((1r,4r)-4-(aminomethyl)-4-hydroxycyclohexyl)(4,4,4-trifluorobutyl)amino)-1-oxoisoindolin-2-yl)piperidine-2,6-dione] has a Dmax at 0.316 µM [1] of less than 50% and an IC50 [2, 3] greater than 1 µM.
With `O=C1CCC(N2Cc3c(cccc3N(CC3CC3)[C@H]3CC[C@H](NC4CC(F)(F)C4)CC3)C2=O)C(=O)N1` (some centres unmarked) [Compound 532, 3-(4-((cyclopropylmethyl)((lr,4r)-4-((3,3-difluorocyclobutyl)amino)cyclohexyl)amino)-1-oxoisoindolin-2-yl)piperidine-2,6-dione] the Dmax at 0.316 µM [1] was greater than 75% and the IC50 [2, 3] was less than 0.1 µM.
`O=C1CCC(N2Cc3c(cccc3N(CC3CC3)[C@H]3CC[C@H](NCCC(F)(F)F)CC3)C2=O)C(=O)N1` (some centres unmarked) [Compound 533, 3-(4-((cyclopropylmethyl)((1r,4r)-4-((3,3,3-trifluoropropyl)amino)cyclohexyl)amino)-1-oxoisoindolin-2-yl)piperidine-2,6-dione] was tested, and the Dmax at 0.316 µM [1] was greater than 75% and the IC50 [2, 3] was less than 0.1 µM.
`O=C1CCC(N2Cc3c(cccc3N(CC3CC3)[C@H]3CC[C@H](NC4COC4)CC3)C2=O)C(=O)N1` (some centres unmarked) [Compound 534, 3-(4-((cyclopropylmethyl)((1r,4r)-4-(oxetan-3-ylamino)cyclohexyl)amino)-1-oxoisoindolin-2-yl)piperidine-2,6-dione] showed a Dmax at 0.316 µM [1] greater than 75% and an IC50 [2, 3] of less than 0.1 µM.
For `N[C@@H]1CC[C@@H](N(CC2CC2)c2cccc3c2CN(C2CCC(=O)NC2=O)C3=O)C[C@H]1F` (stereo partly drawn) [Compound 535, 3-(4-(((1R,3R,4R)-4-amino-3-fluorocyclohexyl)(cyclopropylmethyl)amino)-1-oxoisoindolin-2-yl)piperidine-2,6-dione; formic acid], the Dmax at 0.316 µM [1] was 50 to 75% and the IC50 [2, 3] was less than 0.1 µM.
Molecule `NC[C@]1(O)CC[C@H](N(CC2CC2)c2cccc3c2CN(C2CCC(=O)NC2=O)C3=O)CC1` (some centres unmarked) [Compound 536, 3-(4-(((1r,4r)-4-(aminomethyl)-4-hydroxycyclohexyl)(cyclopropylmethyl)amino)-1-oxoisoindolin-2-yl)piperidine-2,6-dione] has a Dmax at 0.316 µM [1] of less than 50% and an IC50 [2, 3] of 0.1 to 1 µM.
Work on `O=C1CCC(N2Cc3c(cccc3N(CCC3CC3)[C@H]3CC[C@H](NCC(F)F)CC3)C2=O)C(=O)N1` (some centres unmarked) [Compound 539, 3-{4-[(2-cyclopropylethyl)[(1s,4s)-4-[(2,2-difluoroethyl)amino]cyclohexyl]amino]-1-oxo-3H-isoindol-2-yl}piperidine-2,6-dione] yielded a Dmax at 0.316 µM [1] of 50 to 75% and an IC50 [2, 3] of 0.1 to 1 µM.
Work on `O=C1CCC(N2Cc3c(cccc3N(CCC3CC3)[C@H]3CC[C@@H](NCC(F)F)CC3)C2=O)C(=O)N1` (some centres unmarked) [Compound 539A, 3-{4-[(2-cyclopropylethyl)[(1r,4r)-4-[(2,2-difluoroethyl)amino]cyclohexyl]amino]-1-oxo-3H-isoindol-2-yl}piperidine-2,6-dione] yielded a Dmax at 0.316 µM [1] greater than 75% and an IC50 [2, 3] of less than 0.1 µM.
